What was measured:
[1] = tested on: DNA in brain sections of C57BL/6 mice; experiment: DNA fragmentation in brain regions upon treatment with tBuOOH (Tables 1 and 2); assay type: in vivo, mouse (C57BL/6); settings: for Fraction of damaged DNA, Cerebellum / Fraction of damaged DNA, Cortex / Fraction of damaged DNA, Hippo / Fraction of damaged DNA, Midbrain / Fraction of damaged DNA, Striatum / Fraction of damaged DNA, Thalamus: mean ± SD
Experimental: In general male C57BL/6 mice (2, 8 or 24 months old) were anesthetized with ketamine and xylazine (200 and 2 mg/kg, ip). They were injected ICV with tBuOOH in doses of approximately 22 or 110 mg/kg. This amounts to 1 or 5 μl of a 70% solution of tBuOOH injected slowly into a lateral cerebral ventricle. A mouse brain weighs about 400 mg. […] Animals recovered from anesthesia about 30 minutes or so after tBuOOH administration. […] Low dose mice survived for 48 hours or more.
Young adult (2 month old) and mature (8 month old) C57BL/6 mice were divided into 7 groups with 8 animals in the control group and 4 animals in each of the other groups for both the age groups. A dose of 109.7 mg/kg of tBuOOH was administered ICV, to three groups of mice of both age groups. See Tables 1 and 2. tBuOOH was injected ICV following the technique described in Popick^2. The experiments ended 2 minutes, 5 minutes and 20 minutes after injection of tBuOOH. In the second set of experiments, 21.9 mg/kg of the toxin was administered ICV in the other three groups of mice with experimental durations of 12 hours, 24 hours and 48 hours respectively. The controls were treated with saline rather than tBuOOH.
The brains were removed after the allotted time period and sectioned immediately into the following sections: cortex, striatum, hippocampus, thalamus, midbrain and cerebellum.

[2] = HPLC determination of tBuOOH in mice brains (pharmacokinetic profile); assay type: in vivo, mouse (male C57BL/6)
Experimental: Male C57BL/6 mice, 8 months old, were treated ICV with 110 mg/kg of tBuOOH. At various times, brains were removed, dissected and frozen on dry ice. Later the brains were homogenized in acetonitrile and centrifuged for 5 minutes at 12,000 g.

NADPH = experiment: Pyridine dinucleotide quantitation, NADPH in brain regions; assay type: in vivo, mouse (male C57BL/6); settings: 110 mg/kg ICV, 8 month old mice
Description: NADPH and NADH are stable in base. Fortunately, the cyanide reaction proceeds optimally in base.

DNA in brain of mice = assay type: in vivo, mouse (8 month old C47BL/6); settings: 21.9 mg/kg t-BuOOH ICV; 48 hours; 8 month old mice
Experimental: A gel electrophoresis was performed to investigate whether the DNA fragmentation that is observed at the end of 48 hours is due to apoptosis or not (FIG. 7). 8 month old C47BL/6 mice were treated with ICV with 21.9 mg/kg t-BuOOH 48 hours prior to removal of the brains. Brains were added to lysing buffer and centrifuged. The supernatants were collected as in the DNA fragmentation assay. The samples were extracted with an equal volume of phenol/chloroform/isoamyl alcohol (25:24:1). The DNA in the aqueous phase was precipitated by adding an equal volume of 100% ethanol and maintained at -20° C. overnight. DNA was collected by centrifugation at 12,000 g for 25 minutes, air dried and resuspended in TBE buffer (90 mM Tris, 90 mM boric acid and 2 mM EDTA, pH 8.0). Horizontal electrophoresis was performed for 2 hours at 100 volts in a 0.75% agarose gel with TBE buffer. The gel was stained with ethidium bromide and photographed by UV transillumination.

catalase = settings: cited from earlier work
[3] = 2 month old mice, 21.9 mg/kg ICV, 12 hours
[4] = 2 month old mice, 21.9 mg/kg ICV, 24 hours
[5] = 2 month old mice, 21.9 mg/kg ICV, 48 hours
[6] = 2 month old mice, 109.7 mg/kg ICV, 2 min
[7] = 2 month old mice, 109.7 mg/kg ICV, 2 min, * p<0.05 vs control
[8] = 2 month old mice, 109.7 mg/kg ICV, 5 min
[9] = 2 month old mice, 109.7 mg/kg ICV, 20 min
[10] = 2 month old mice, 109.7 mg/kg ICV, 20 min, * p<0.05 vs control
[11] = 8 month old mice, 21.9 mg/kg ICV, 12 hours
[12] = 8 month old mice, 21.9 mg/kg ICV, 24 hours
[13] = 8 month old mice, 21.9 mg/kg ICV, 48 hours
[14] = 8 month old mice, 109.7 mg/kg ICV, 2 min
[15] = 8 month old mice, 109.7 mg/kg ICV, 5 min
[16] = 8 month old mice, 109.7 mg/kg ICV, 20 min
[17] = 8 month old mice, 109.7 mg/kg ICV, 20 min, * p<0.05 vs control

CC(C)(C)OO [tBuOOH, t-butylhydroperoxide]
effect on cortex DNA ([1]; 2 and 8 month old mice, high or low dose): not affected | DNA damage in all other brain sections ([1]; 2 and 8 month old mice, high or low dose or both): some vulnerability | Fraction of damaged DNA, Cerebellum [1, 3]: 0.65 ± 0.19 per gram of tissue | Fraction of damaged DNA, Cortex [1, 3]: 0.53 ± 0.16 per gram of tissue | Fraction of damaged DNA, Hippo [1, 3]: 0.40 ± 0.16 per gram of tissue | Fraction of damaged DNA, Midbrain [1, 3]: 0.83 ± 0.58 per gram of tissue | Fraction of damaged DNA, Striatum [1, 3]: 1.13 ± 0.49 per gram of tissue | Fraction of damaged DNA, Thalamus [1, 3]: 1.29 ± 0.39 per gram of tissue | Fraction of damaged DNA, Cerebellum [1, 4]: 0.93 ± 0.36 per gram of tissue | Fraction of damaged DNA, Cortex [1, 4]: 0.47 ± 0.13 per gram of tissue | Fraction of damaged DNA, Hippo [1, 4]: 0.31 ± 0.04 per gram of tissue | Fraction of damaged DNA, Midbrain [1, 4]: 1.23 ± 0.12 per gram of tissue | Fraction of damaged DNA, Striatum [1, 4]: 1.16 ± 0.31 per gram of tissue | Fraction of damaged DNA, Thalamus [1, 4]: 1.44 ± 0.76 per gram of tissue | Fraction of damaged DNA, Cortex [1, 5]: 0.73 ± 0.03 per gram of tissue | Fraction of damaged DNA, Hippo [1, 5]: 0.50 ± 0.09 per gram of tissue | Fraction of damaged DNA, Midbrain [1, 5]: 1.24 ± 0.13 per gram of tissue | Fraction of damaged DNA, Striatum [1, 5]: 1.66 ± 0.33 per gram of tissue | Fraction of damaged DNA, Thalamus [1, 5]: 1.25 ± 0.14 per gram of tissue | Fraction of damaged DNA, Cerebellum ([1]; 2 month old mice, 21.9 mg/kg ICV, 48 hours, * p<0.05 vs control, 1 p<0.05 vs other age group): 1.29 ± 0.12 per gram of tissue | significant damage in the hippocampus ([1]; 2 month old mice, 109.7 mg/kg): significant damage was seen 2 minutes and 20 minutes after injection | Fraction of damaged DNA, Cerebellum [1, 6]: 1.17 ± 0.25 per gram of tissue | Fraction of damaged DNA, Cortex [1, 6]: 0.84 ± 0.33 per gram of tissue | Fraction of damaged DNA, Striatum [1, 6]: 2.00 ± 0.45 per gram of tissue | Fraction of damaged DNA, Hippo [1, 7]: 0.66 ± 0.09 per gram of tissue | Fraction of damaged DNA, Midbrain [1, 7]: 2.48 ± 1.02 per gram of tissue | Fraction of damaged DNA, Thalamus [1, 7]: 2.66 ± 0.33 per gram of tissue | Fraction of damaged DNA, Cerebellum [1, 8]: 0.88 ± 0.20 per gram of tissue | Fraction of damaged DNA, Cortex [1, 8]: 0.82 ± 0.23 per gram of tissue | Fraction of damaged DNA, Hippo [1, 8]: 0.41 ± 0.05 per gram of tissue | Fraction of damaged DNA, Midbrain [1, 8]: 1.71 ± 0.77 per gram of tissue | Fraction of damaged DNA, Striatum [1, 8]: 1.66 ± 0.52 per gram of tissue | Fraction of damaged DNA, Thalamus ([1]; 2 month old mice, 109.7 mg/kg ICV, 5 min, * p<0.05 vs control): 2.85 ± 0.83 per gram of tissue | Fraction of damaged DNA, Cortex [1, 9]: 0.76 ± 0.26 per gram of tissue | Fraction of damaged DNA, Thalamus [1, 9]: 2.46 ± 0.65 per gram of tissue | Fraction of damaged DNA, Cerebellum [1, 10]: 1.39 ± 0.51 per gram of tissue | Fraction of damaged DNA, Hippo [1, 10]: 0.66 ± 0.14 per gram of tissue | Fraction of damaged DNA, Midbrain [1, 10]: 3.09 ± 0.28 per gram of tissue | Fraction of damaged DNA, Striatum [1, 10]: 2.56 ± 0.49 per gram of tissue | hippocampus damage at 5 minutes compared with other age group ([1]; 2 month old vs 8 month old mice, 109.7 mg/kg): significantly lower | significant damage in the cerebellum, early ([1]; 8 month old mice after 5 and 20 minutes, 2 month old mice after 20 minutes): Significant damage was observed after 5 minutes and 20 minutes, in the case of the 8 month old cerebellum and after 20 minutes in the 2 month old cerebellum | Fraction of damaged DNA, Cerebellum [1, 11]: 0.69 ± 0.15 per gram of tissue | Fraction of damaged DNA, Cortex [1, 11]: 0.61 ± 0.10 per gram of tissue | Fraction of damaged DNA, Hippo [1, 11]: 0.46 ± 0.17 per gram of tissue | Fraction of damaged DNA, Midbrain [1, 11]: 0.76 ± 0.24 per gram of tissue | Fraction of damaged DNA, Striatum [1, 11]: 1.17 ± 0.33 per gram of tissue | Fraction of damaged DNA, Thalamus [1, 11]: 1.08 ± 0.30 per gram of tissue | Fraction of damaged DNA, Cerebellum [1, 12]: 0.67 ± 0.16 per gram of tissue | Fraction of damaged DNA, Cortex [1, 12]: 0.65 ± 0.13 per gram of tissue | Fraction of damaged DNA, Hippo [1, 12]: 0.46 ± 0.05 per gram of tissue | Fraction of damaged DNA, Midbrain [1, 12]: 1.05 ± 0.35 per gram of tissue | Fraction of damaged DNA, Striatum [1, 12]: 0.99 ± 0.06 per gram of tissue | Fraction of damaged DNA, Thalamus [1, 12]: 0.75 ± 0.27 per gram of tissue | Fraction of damaged DNA, Cortex [1, 13]: 0.69 ± 0.10 per gram of tissue | Fraction of damaged DNA, Hippo [1, 13]: 0.55 ± 0.06 per gram of tissue | Fraction of damaged DNA, Midbrain [1, 13]: 1.05 ± 0.13 per gram of tissue | Fraction of damaged DNA, Striatum [1, 13]: 1.15 ± 0.12 per gram of tissue | Fraction of damaged DNA, Thalamus [1, 13]: 1.65 ± 0.13 per gram of tissue | Fraction of damaged DNA, Cerebellum ([1]; 8 month old mice, 21.9 mg/kg ICV, 48 hours, * p<0.05 vs control): 1.01 ± 0.11 per gram of tissue | significant damage in the hippocampus ([1]; 8 month old mice, 109.7 mg/kg): significant damage was seen within 5 minutes | Fraction of damaged DNA, Cerebellum [1, 14]: 0.80 ± 0.09 per gram of tissue | Fraction of damaged DNA, Cortex [1, 14]: 0.87 ± 0.17 per gram of tissue | Fraction of damaged DNA, Hippo [1, 14]: 0.69 ± 0.14 per gram of tissue | Fraction of damaged DNA, Midbrain [1, 14]: 2.24 ± 0.66 per gram of tissue | Fraction of damaged DNA, Striatum [1, 14]: 1.56 ± 0.27 per gram of tissue | Fraction of damaged DNA, Thalamus ([1]; 8 month old mice, 109.7 mg/kg ICV, 2 min, * p<0.05 vs control): 2.29 ± 0.78 per gram of tissue | Fraction of damaged DNA, Cortex [1, 15]: 0.67 ± 0.16 per gram of tissue | Fraction of damaged DNA, Midbrain [1, 15]: 1.93 ± 0.26 per gram of tissue | Fraction of damaged DNA, Striatum [1, 15]: 1.63 ± 0.47 per gram of tissue | Fraction of damaged DNA, Thalamus [1, 15]: 1.86 ± 0.58 per gram of tissue | Fraction of damaged DNA, Cerebellum ([1]; 8 month old mice, 109.7 mg/kg ICV, 5 min, * p<0.05 vs control): 1.15 ± 0.12 per gram of tissue | Fraction of damaged DNA, Hippo ([1]; 8 month old mice, 109.7 mg/kg ICV, 5 min, * p<0.05 vs control, 1 p<0.05 vs other age group): 0.81 ± 0.20 per gram of tissue | Fraction of damaged DNA, Cortex [1, 16]: 0.70 ± 0.19 per gram of tissue | Fraction of damaged DNA, Hippo [1, 16]: 0.67 ± 0.15 per gram of tissue | Fraction of damaged DNA, Cerebellum [1, 17]: 1.46 ± 0.36 per gram of tissue | Fraction of damaged DNA, Midbrain [1, 17]: 2.98 ± 0.85 per gram of tissue | Fraction of damaged DNA, Striatum [1, 17]: 2.38 ± 0.41 per gram of tissue | Fraction of damaged DNA, Thalamus [1, 17]: 2.77 ± 0.30 per gram of tissue | significant DNA damage in the thalamus ([1]; both age groups): significant DNA damage was found after 2 minutes | significant damage in the midbrain ([1]; both age groups): significant damage was found after 20 minutes | significant damage in the cerebellum at 48 hours ([1]; both age groups, 2 month old significantly greater than 8 month old): significant damage was observed in the cerebellum at the end of 48 hours | significant DNA damage in the striatum ([1]; both age groups, high dose): significant DNA damage was found only after 20 minutes | toxin concentration relative to the initial concentration within 5 minutes ([2]; 110 mg/kg ICV, 8 month old mice): less than 50% | tBuOOH concentration curve in 2 month old mice ([2]; compared with 8 month old mice): virtually identical curve | concentration at 10 min ([2]; mouse, brain, icv or intrathecal, 110 mg/kg ICV, 8 month old mice): ~1000 µM | half-life ([2]; mouse, icv or intrathecal, 110 mg/kg ICV, depending on the brain region): 4 to 20 min | clearance of tBuOOH from the brain ([2]; striatum of 8 month old mice, 110 mg/kg ICV): very rapid clearance of tBuOOH from the brain in the initial period, followed by a slower clearance | time for NADPH to return to control values (NADPH): ≤ 5 min | NADPH oxidation (NADPH; every brain region): oxidized rapidly | DNA fragments on gel electrophoresis (DNA in brain of mice): Oligosomal sized DNA fragments were observed along with a smear of fragmentation | substrate for catalase (catalase): not a substrate for catalase
